Patent US9969749B2, “Inhibitors of IRAK4 activity” (MERCK SHARP & DOHME CORP., priority 2014, dated 2018)

Molecular target: IRAK4 (Homo sapiens (Human), UniProt Q9NWZ3)
Assay: IRAK4 Kinase Assay (IMAP fluorescence polarization)
Format: biochemical
Details: 0.5 nM GST tagged IRAK4, 100 μM ATP, 100 nM fluorescent peptide substrate RP7030, 30 minutes at 25° C.
Summary of the method: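 GST-tagged IRAK4 (0.5 nM) phosphorylates 100 nM fluorescent peptide with 100 μM ATP in 10 mM Tris pH 7.2, 1 mM MgCl2, 1 mM DTT, 0.01% Tween 20 for 30 min at 25 °C. Phosphorylation read as IMAP nanoparticle-binding fluorescence polarization after stop reagent.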

Sequence of IRAK4 (Q9NWZ3 whole entry): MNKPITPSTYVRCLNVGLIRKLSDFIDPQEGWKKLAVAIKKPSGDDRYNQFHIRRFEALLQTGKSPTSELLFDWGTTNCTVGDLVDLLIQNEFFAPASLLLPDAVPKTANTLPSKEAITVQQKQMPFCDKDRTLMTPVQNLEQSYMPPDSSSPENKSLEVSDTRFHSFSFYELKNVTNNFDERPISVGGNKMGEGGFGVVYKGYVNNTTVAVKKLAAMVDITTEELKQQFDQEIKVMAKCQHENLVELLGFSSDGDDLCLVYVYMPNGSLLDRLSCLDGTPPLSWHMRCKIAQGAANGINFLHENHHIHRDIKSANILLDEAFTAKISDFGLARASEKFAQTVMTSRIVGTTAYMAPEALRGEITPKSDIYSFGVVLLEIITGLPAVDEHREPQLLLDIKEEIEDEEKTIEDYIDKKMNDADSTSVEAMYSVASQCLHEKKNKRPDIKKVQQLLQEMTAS

| IC50 [nM] | Compound |
| --- | --- |
| 3 | Nc1cc(-c2ccc3ncnc(N[C@H]4CC[C@H](N5CCOCC5)CC4)c3c2)ccn1 [Example 1-74, 6-(2-aminopyridin-4-yl)-N-(trans-4-morpholin-4-ylcyclohexyl)quinazolin-4-amine] |
| 15 | Fc1cc2ncnc(N[C@H]3CC[C@H](N4CCOCC4)CC3)c2cc1-c1cncnc1 [Example 1-87, 7-fluoro-N-(trans-4-morpholin-4-ylcyclohexyl)-6-pyrimidin-5-ylquinazolin-4-amine] |
| 6 | Nc1cc(-c2ccc3ncnc(N[C@H]4CC[C@H](N5CCO[C@H](CF)C5)CC4)c3c2)cnc1F [Example 5-23, 6-(5-amino-6-fluoropyridin-3-yl)-N-{trans-4-[(2S)-2-(fluoromethyl)morpholin-4-yl]cyclohexyl}quinazolin-4-amine] |
| 2 | Nc1cc(-c2ccc3ncnc(N[C@H]4CC[C@H](N5CCC(F)(F)CC5)CC4)c3c2)cnc1F [Example 5-15, 6-(5-amino-6-fluoropyridin-3-yl)-N-[trans-4-(4,4-difluoropiperidin-1-yl)cyclohexyl]quinazolin-4-amine] |
| < 0.5 | Oc1cc(-c2ccc3ncnc(N[C@H]4CC[C@H](N5CCC(F)(F)CC5)CC4)c3c2)cnc1F [Example 5-1, 5-(4-{[Trans-4-(4,4-difluoropiperidin-1-yl)cyclohexyl]amino}quinazolin-6-yl)-2-fluoropyridin-3-ol] |
| 1320 | CN(C)[C@H]1CC[C@H](Nc2ncnc3ccc(-c4cnn(CCN5CCOCC5)c4)cc23)CC1 [Example 1-15, trans-N,N-dimethyl-N′-(6-{1-[2-(morpholin-4-yl)ethyl]-1H-pyrazol-4-yl}quinazolin-4-yl)cyclohexane-1,4-diamine] |
| 4 | CS(=O)(=O)N1CCN([C@H]2CC[C@H](Nc3ncnc4ccc(-c5cnc(F)c(N)c5)cc34)CC2)CC1 [Example 5-20, 6-(5-amino-6-fluoropyridin-3-yl)-N-{trans-4-[4-(methylsulfonyl)piperazin-1-yl]cyclohexyl}quinazolin-4-amine] |
| 10 | Nc1cc(-c2ccc3ncnc(N[C@H]4CC[C@H](N5CCOCC5)CC4)c3c2)cnc1Cl [Example 2-36, 6-(5-amino-6-chloropyridin-3-yl)-N-[trans-4-(morpholin-4-yl)cyclohexyl]quinazolin-4-amine] |
| 324 | Cn1nccc1-c1ccc2ncnc(N[C@H]3CC[C@H](N4CCOCC4)CC3)c2c1 [Example 2-13, 6-(1-methyl-1H-pyrazol-5-yl)-N-(trans-4-morpholin-4-ylcyclohexyl)quinazolin-4-amine] |
| 13 | CN(C)C1CCC(Nc2ncnc3ccc(-c4cccnc4)cc23)CC1 (single isomer, unassigned) [Example 1-7, cis or trans-N,N-dimethyl-N′-[6-(pyridin-3-yl)quinazolin-4-yl]cyclohexane-1,4-diamine] |
| 2 | Fc1cc2ncnc(N[C@H]3CC[C@H](N4CCOCC4)CC3)c2cc1-c1cn[nH]c1 [Example 1-80, 7-fluoro-N-(trans-4-morpholin-4-ylcyclohexyl)-6-(1H-pyrazol-4-yl)quinazolin-4-amine] |
| < 0.5 | C[C@@H]1CN([C@H]2CC[C@H](Nc3ncnc4ccc(-c5cncc(O)c5)cc34)CC2)C[C@H](C)O1 [Example 5-6, 5-[4-({trans-4-[(2R,6S)-2,6-dimethylmorpholin-4-yl]cyclohexyl}amino)quinazolin-6-yl]pyridin-3-ol] |
| 23 | CN(C)[C@H]1CC[C@H](Nc2ncnc3ccc(-c4cc(F)cc(F)c4)cc23)CC1 [Example 1-62, trans-N′-[6-(3,5-difluorophenyl)quinazolin-4-yl]-N,N-dimethylcyclohexane-1,4-diamine] |
| 92 | Cc1nc(-c2ccc3ncnc(N[C@H]4CC[C@H](N5CCOCC5)CC4)c3c2)cs1 [Example 2-2, 6-(2-methyl-1,3-thiazol-4-yl)-N-(trans-4-morpholin-4-ylcyclohexyl)quinazolin-4-amine] |
| < 0.5 | Oc1cncc(-c2ccc3ncnc(N[C@H]4CC[C@H](N5CCC(F)(F)CC5)CC4)c3c2)c1 [Example 5-17, 5-(4-{[trans-4-(4,4-difluoropiperidin-1-yl)cyclohexyl]amino}quinazolin-6-yl)pyridin-3-ol] |
| 6 | Oc1cccc(-c2ccc3ncnc(N[C@H]4CC[C@H](N5CCOCC5)CC4)c3c2)c1 [Example 1-72, 3-{4-[(trans-4-morpholin-4-ylcyclohexyl)amino]quinazolin-6-yl}phenol] |
| 12 | Fc1c[nH]nc1-c1ccc2ncnc(N[C@H]3CC[C@H](N4CCOCC4)CC3)c2c1 [Example 2-9, 6-(4-fluoro-1H-pyrazol-3-yl)-N-(trans-4-morpholin-4-ylcyclohexyl)quinazolin-4-amine] |
| 46 | CN(C)[C@H]1CC[C@H](Nc2ncnc3ccc(-c4cncc(C#N)c4)cc23)CC1 [Example 1-54, 5-(4-{[trans-4-(dimethylamino)cyclohexyl]amino}quinazolin-6-yl)pyridine-3-carbonitrile] |
| 1 | Oc1cncc(-c2cc3c(N[C@H]4CC[C@H](N5CCOCC5)CC4)ncnc3cc2F)c1 [Example 1-84, 5-{7-fluoro-4-[(trans-4-morpholin-4-ylcyclohexyl)amino]quinazolin-6-yl}pyridin-3-ol] |
| 83 | COCCOc1cncc(-c2ccc3ncnc(N[C@H]4CC[C@H](N(C)C)CC4)c3c2)c1 [Example 1-40, trans-N′-{6-[5-(2-methoxyethoxy)pyridin-3-yl]quinazolin-4-yl}-N,N-dimethylcyclohexane-1,4-diamine] |
| 52 | N#Cc1cscc1-c1ccc2ncnc(N[C@H]3CC[C@H](N4CCOCC4)CC3)c2c1 [Example 2-18, 4-(4-{[trans-4-(morpholin-4-yl)cyclohexyl]amino}quinazolin-6-yl)thiophene-3-carbonitrile] |
| 42 | Cc1ccc(-c2ccc3ncnc(N[C@H]4CC[C@H](N(C)C)CC4)c3c2)cn1 [Example 1-30, trans-N,N-dimethyl-N′-[6-(6-methylpyridin-3-yl)quinazolin-4-yl]cyclohexane-1,4-diamine] |
| 15 | Oc1cc(-c2ccc3ncnc(N[C@H]4CC[C@H](N5CCOCC5)CC4)c3c2)ccn1 [Example 1-67, 4-{4-[(trans-4-morpholin-4-ylcyclohexyl)amino]quinazolin-6-yl}pyridin-2-ol] |
| 2 | c1nc(N[C@H]2CC[C@H](N3CCOCC3)CC2)c2cc(-c3cn[nH]c3)ccc2n1 [Example 1-82, N-(trans-4-morpholin-4-ylcyclohexyl)-6-(1H-pyrazol-4-yl)quinazolin-4-amine] |
| 3 | c1ncc(-c2ccc3ncnc(N[C@H]4CC[C@H](N5CCOCC5)CC4)c3c2)cn1 [Example 1-47, N-[trans-4-(morpholin-4-yl)cyclohexyl]-6-(pyrimidin-5-yl)quinazolin-4-amine] |
| 11 | CN(C)[C@H]1CC[C@H](Nc2ncnc3ccc(-c4ccncc4F)cc23)CC1 [Example 1-34, trans-N′-[6-(3-fluoropyridin-4-yl)quinazolin-4-yl]-N,N-dimethylcyclohexane-1,4-diamine] |
| 200 | COc1ncc(-c2ccc3ncnc(N[C@H]4CC[C@H](N(C)C)CC4)c3c2)cc1F [Example 1-52, trans-N′-[6-(5-fluoro-6-methoxypyridin-3-yl)quinazolin-4-yl]-N,N-dimethylcyclohexane-1,4-diamine] |
